Laboratory results as given in patent publication US20230114627A1, “COMPOSITION COMPRISING A METAL ASCORBO-CAMPHORATE COMPOUND AND METHOD FOR PREVENTION AND/OR TREATMENT OF PAPILLOMAVIRUS INFECTIONS” (MGB PHARMA Inc., priority 2020, published 2023).

Tested on: HEC-1A cells
Assay: Cytokine/chemokine MultiPlex assay (BioPlex 200) of HEC-1A secretion
Assay type: cell-based
Settings: 24 hours
Excerpt: In the model as provided in this example, a method to assess the pro-inflammatory character of antivirals intended to be applied as mucosal topicals was used.
Epithelial cells are capable of secreting a set of molecules called cytokines and chemokines, which are responsible for the recruitment and activation of immune cells at the site of secretion. This process can be deleterious in the context of sexual transmission of HIV-1 because the recruited cells are the preferred targets of the virus. […] A microbicide candidate should therefore not promote inflammation by activating the production of this type of molecule by the cells directly in contact with the substance (epithelial cells). These secretions can be deleterious in the context of sexual transmission of HIV-1 or HPV and other papillomaviruses because the recruited cells are the preferred targets of the virus. A microbicide candidate must thus not promote inflammation by activating the production of these types of molecules by the cells in contact with the substance (epithelial cells).
After 24 hours of incubation, a panel of 48 inflammation-related cytokines/chemokines is assayed by MultiPlex (BioPlex 200 BioRad) in the basal medium.

With zinc tetra-ascorbo-camphorate [C14] the IL-12ρ40 (10 μM) was 0 pg/mL, the IL-13 (10 μM) was 4.145 pg/mL and the IL-15 (10 μM) was 0 pg/mL. It also gave an IL-16 (10 μM) of 0 pg/mL, an IL-17 (10 μM) of 0 pg/mL and an IL-18 (10 μM) of 0 pg/mL. It also gave an IP-10 (10 μM) of 7.165 pg/mL, an LIF (10 μM) of 0 pg/mL and a M-CSF (10 μM) of 4.805 pg/mL. For the same substance, the MCP-1 (10 μM) was 7.55 pg/mL, the MCP-3 (10 μM) was 0 pg/mL and the MIF (10 μM) was 1.06 pg/mL. For the same substance, the MIG (10 μM) was 3.76 pg/mL, the MIP-1α (10 μM) was 2.065 pg/mL and the MIP-1β (10 μM) was 1.555 pg/mL. The PDGF-β (10 μM) was 2.805 pg/mL, the RANTES (10 μM) was 12.995 pg/mL and the SCF (10 μM) was 0 pg/mL. The SCGF-β (10 μM) was 255.82 pg/mL, the SDF-1α (10 μM) was 11.41 pg/mL and the TNF-α (10 μM) was 6.985 pg/mL. For the same substance, the TNF-β (10 μM) was 0 pg/mL, the TRAIL (10 μM) was 5.025 pg/mL and the VEGF (10 μM) was 1530.905 pg/mL. It also gave a β-NGF (10 μM) of 0.86 pg/mL, a CTACK (100 μM) of 2.585 pg/mL and an Eotaxin (100 μM) of 0 pg/mL. It also gave an FGF (100 μM) of 1.635 pg/mL, a G-CSF (100 μM) of 1.885 pg/mL and a GM-CSF (100 μM) of 9.51 pg/mL. The GROα (100 μM) was 0 pg/mL, the HGF (100 μM) was 4.58 pg/mL and the IFN-α2 (100 μM) was 4.08 pg/mL. It also gave an IFN-γ (100 μM) of 89.85 pg/mL, an IL-1rα (100 μM) of 10.3 pg/mL and an IL-1α (100 μM) of 0 pg/mL. The IL-1β (100 μM) was 0.34 pg/mL, the IL-2 (100 μM) was 0.02 pg/mL and the IL-2rα (100 μM) was 3.245 pg/mL. It also gave an IL-3 (100 μM) of 5.495 pg/mL, an IL-4 (100 μM) of 0.33 pg/mL and an IL-5 (100 μM) of 0 pg/mL. It also gave an IL-6 (100 μM) of 0.255 pg/mL, an IL-7 (100 μM) of 4.495 pg/mL and an IL-8 (100 μM) of 783.255 pg/mL. For the same substance, the IL-9 (100 μM) was 22.305 pg/mL, the IL-10 (100 μM) was 3.505 pg/mL and the IL-12 (100 μM) was 99.355 pg/mL. It also gave an IL-12ρ40 (100 μM) of 0 pg/mL, an IL-13 (100 μM) of 3.735 pg/mL and an IL-15 (100 μM) of 0 pg/mL. It also gave an IL-16 (100 μM) of 0 pg/mL, an IL-17 (100 μM) of 0 pg/mL and an IL-18 (100 μM) of 0 pg/mL. It also gave an IP-10 (100 μM) of 0 pg/mL, an LIF (100 μM) of 0 pg/mL and a M-CSF (100 μM) of 4.725 pg/mL. The MCP-1 (100 μM) was 5.3 pg/mL, the MCP-3 (100 μM) was 0 pg/mL and the MIF (100 μM) was 1.06 pg/mL. The MIG (100 μM) was 2.75 pg/mL, the MIP-1α (100 μM) was 1.77 pg/mL and the MIP-1β (100 μM) was 1.26 pg/mL. The PDGF-β (100 μM) was 3.58 pg/mL, the RANTES (100 μM) was 12.205 pg/mL and the SCF (100 μM) was 0 pg/mL. For the same substance, the SCGF-β (100 μM) was 228.825 pg/mL, the SDF-1α (100 μM) was 11.41 pg/mL and the TNF-α (100 μM) was 5.465 pg/mL. It also gave a TNF-β (100 μM) of 0 pg/mL, a TRAIL (100 μM) of 5.025 pg/mL and a VEGF (100 μM) of 1469.495 pg/mL. The β-NGF (100 μM) was 0.95 pg/mL, the CTACK (500 μM) was 3.425 pg/mL and the Eotaxin (500 μM) was 3.21 pg/mL. For the same substance, the FGF (500 μM) was 1.925 pg/mL, the G-CSF (500 μM) was 2.3 pg/mL and the GM-CSF (500 μM) was 7.53 pg/mL. It also gave a GROα (500 μM) of 2.75 pg/mL, an HGF (500 μM) of 6.22 pg/mL and an IFN-α2 (500 μM) of 3.58 pg/mL. For the same substance, the IFN-γ (500 μM) was 98.775 pg/mL, the IL-1rα (500 μM) was 14.09 pg/mL and the IL-1α (500 μM) was 0 pg/mL. The IL-1β (500 μM) was 0.415 pg/mL, the IL-2 (500 μM) was 0.28 pg/mL and the IL-2rα (500 μM) was 4.39 pg/mL. The IL-3 (500 μM) was 6.785 pg/mL, the IL-4 (500 μM) was 0.295 pg/mL and the IL-5 (500 μM) was 0 pg/mL. It also gave an IL-6 (500 μM) of 0.79 pg/mL, an IL-7 (500 μM) of 4.66 pg/mL and an IL-8 (500 μM) of 1219.13 pg/mL. The IL-9 (500 μM) was 30.4 pg/mL, the IL-10 (500 μM) was 4.165 pg/mL and the IL-12 (500 μM) was 121.285 pg/mL. For the same substance, the IL-12ρ40 (500 μM) was 0 pg/mL, the IL-13 (500 μM) was 4.555 pg/mL and the IL-15 (500 μM) was 0 pg/mL. For the same substance, the IL-16 (500 μM) was 0 pg/mL, the IL-17 (500 μM) was 0 pg/mL and the IL-18 (500 μM) was 0 pg/mL. It also gave an IP-10 (500 μM) of 10.765 pg/mL, an LIF (500 μM) of 0 pg/mL and a M-CSF (500 μM) of 3.995 pg/mL. It also gave an MCP-1 (500 μM) of 5.165 pg/mL, an MCP-3 (500 μM) of 0 pg/mL and an MIF (500 μM) of 5.26 pg/mL. It also gave an MIG (500 μM) of 3.09 pg/mL, an MIP-1α (500 μM) of 2.04 pg/mL and an MIP-1β (500 μM) of 1.655 pg/mL. It also gave a PDGF-β (500 μM) of 6.19 pg/mL, an RANTES (500 μM) of 13.835 pg/mL and an SCF (500 μM) of 0 pg/mL. It also gave an SCGF-β (500 μM) of 128.865 pg/mL, an SDF-1α (500 μM) of 11.41 pg/mL and a TNF-α (500 μM) of 10.49 pg/mL. The TNF-β (500 μM) was 0 pg/mL, the TRAIL (500 μM) was 3.43 pg/mL and the VEGF (500 μM) was 1814.38 pg/mL. For the same substance, the β-NGF (500 μM) was 0.995 pg/mL.
